Results from patent EP3156406A1, “CRYSTALLINE FORMS OF RIBOCICLIB FREE BASE” (ratiopharm GmbH, priority 2015, dated 2017).
In brackets after ≈: the same amount, converted by molar mass.

Experiments:
Type in all cases: physicochemical
[1] = Long term stability of solid form at 40°C/75%r.h.
[2] = Solubility in aqueous solvents; settings: for Solubility: 37°C
Description: Approx. 340 mg (exactly weighed) test substance was weighed into a glass vial, followed by addition of 2.5 ml solvent. A stirring bar was added, the vial was fixed in a block heater at 37°C and the suspension was stirred with approx. 250 rpm. After 15 min and 1 h, samples were withdrawn, filtered through a 0.2 µm disposable filter, 50 µl of the clear filtrate were diluted with 950 µl DMSO and 2 µl thereof were analyzed by HPLC/UV.

[3] = Dynamic vapor sorption - stability of solid form; settings: 25°C, humidity cycles 0-95% RH
Description: Vapour sorption experiments were performed in the instrument SPSx-1µ (Projekt Messtechnik, Ulm, Germany) at temperature of 25°C and the humidity cycles as shown below. Humidity cycle conditions: [table]

Q: Which “Long term stability at 40°C/75%r.h. (4 weeks)” value [1] does the source give for `CN(C)C(=O)c1cc2cnc(Nc3ccc(N4CCNCC4)cn3)nc2n1C1CCCC1` [Form 1, 7-cyclopentyl-N,N-dimethyl-2-((5-(piperazin-1-yl)pyridin-2-yl)amino)-7H-pyrrolo[2,3-d]pyrimidine-6-carboxamide] here?
A: Its value is “stable”.

Q: And the “Long term stability at 40°C/75%r.h. (12 weeks)” value [1]?
A: Its value is “stable”.

Q: And the Solubility ([2]; 0.01 N HCl ∼pH2.2, 15 min, listed as RBC free base form 1)?
A: The Solubility was 3800 µg/mL (≈ 8.74 mM).

Q: And the Solubility ([2]; 0.01 N HCl ∼pH2.2, 1 h, listed as RBC free base form 1)?
A: Its Solubility is 3400 µg/mL (≈ 7.82 mM).

Q: And the Solubility ([2]; 20mM NaAc pH4.5, 1 h, listed as RBC free base form 1)?
A: Its Solubility is 14200 µg/mL (≈ 32.7 mM).

Q: And the solubility at 15 min ([2]; 20 mM sodium acetate buffer, 37 °C, pH 4.5, aqueous buffer, thermodynamic from solid, 20mM NaAc pH4.5, 15 min)?
A: Its solubility at 15 min is 14200 µg/mL (≈ 32.7 mM).

Q: And the Solubility ([2]; 50mM KH2PO4 pH6.5 + 2%TPGS, 15 min, listed as RBC free base form 1)?
A: The Solubility was 3600 µg/mL.

Q: What about the Solubility ([2]; 50mM KH2PO4 pH6.5 + 2%TPGS, 1 h, listed as RBC free base form 1) of the same compound?
A: Its Solubility is 1500 µg/mL.

Q: And the Solubility ([2]; 50mM KH2PO4 pH6.8, 15 min, listed as RBC free base form 1)?
A: Its Solubility is 1500 µg/mL (≈ 3.45 mM).

Q: And the Solubility ([2]; 50mM KH2PO4 pH6.8, 1 h, listed as RBC free base form 1)?
A: Its Solubility is 1600 µg/mL (≈ 3.68 mM).

Q: What about the “Stability of solid form (in DVS)” value [3] of the same compound?
A: The value was “stable”.

Q: With `CN(C)C(=O)c1cc2cnc(Nc3ccc(N4CCNCC4)cn3)nc2n1C1CCCC1` [Form 4, 7-cyclopentyl-N,N-dimethyl-2-((5-(piperazin-1-yl)pyridin-2-yl)amino)-7H-pyrrolo[2,3-d]pyrimidine-6-carboxamide, reference compound] as the compound, how does the “Stability of solid form (in DVS)” value [3] read?
A: The value was “Unstable at RT and ambient conditions”.

Q: What does the source list for `CN(C)C(=O)c1cc2cnc(Nc3ccc(N4CCNCC4)cn3)nc2n1C1CCCC1` [Form 6, 7-cyclopentyl-N,N-dimethyl-2-((5-(piperazin-1-yl)pyridin-2-yl)amino)-7H-pyrrolo[2,3-d]pyrimidine-6-carboxamide]?
A: Long term stability at 40°C/75%r.h. (4 weeks) [1]: stable; Long term stability at 40°C/75%r.h. (12 weeks) [1]: stable; Solubility ([2]; 0.01 N HCl ∼pH2.2, 15 min, listed as RBC free base form 6): 400 µg/mL (≈ 0.92 mM); Solubility ([2]; 0.01 N HCl ∼pH2.2, 1 h, listed as RBC free base form 6): 200 µg/mL (≈ 0.46 mM); Solubility ([2]; 20mM NaAc pH4.5, 15 min, listed as RBC free base form 6): 12200 µg/mL (≈ 28.1 mM); Solubility ([2]; 20mM NaAc pH4.5, 1 h, listed as RBC free base form 6): 9700 µg/mL (≈ 22.3 mM); Solubility ([2]; 50mM KH2PO4 pH6.5 + 2%TPGS, 15 min, listed as RBC free base form 6): 2800 µg/mL; Solubility ([2]; 50mM KH2PO4 pH6.5 + 2%TPGS, 1 h, listed as RBC free base form 6): 2400 µg/mL; Solubility ([2]; 50mM KH2PO4 pH6.8, 15 min, listed as RBC free base form 6): 1200 µg/mL (≈ 2.76 mM); Solubility ([2]; 50mM KH2PO4 pH6.8, 1 h, listed as RBC free base form 6): 500 µg/mL (≈ 1.15 mM); Stability of solid form (in DVS) [3]: stable

Q: For `CN(C)C(=O)c1cc2cnc(Nc3ccc(N4CCNCC4)cn3)nc2n1C1CCCC1` [Form 7, 7-cyclopentyl-N,N-dimethyl-2-((5-(piperazin-1-yl)pyridin-2-yl)amino)-7H-pyrrolo[2,3-d]pyrimidine-6-carboxamide], which “Long term stability at 40°C/75%r.h. (4 weeks)” value [1] is on record?
A: The value was “stable”.

Q: And the “Long term stability at 40°C/75%r.h. (12 weeks)” value [1]?
A: Its value is “stable”.

Q: And the Solubility ([2]; 0.01 N HCl ∼pH2.2, 15 min, listed as RBC free base form 7)?
A: Its Solubility is 3100 µg/mL (≈ 7.13 mM).

Q: What about the Solubility ([2]; 0.01 N HCl ∼pH2.2, 1 h, listed as RBC free base form 7) of the same compound?
A: Its Solubility is 3000 µg/mL (≈ 6.9 mM).

Q: And the Solubility ([2]; 20mM NaAc pH4.5, 15 min, listed as RBC free base form 7)?
A: The Solubility was 11300 µg/mL (≈ 26 mM).

Q: What about the solubility at 1 h ([2]; 20 mM sodium acetate buffer, 37 °C, pH 4.5, aqueous buffer, thermodynamic from solid, 20mM NaAc pH4.5, 1 h) of the same compound?
A: The solubility at 1 h was 11500 µg/mL (≈ 26.5 mM).

Q: What about the Solubility ([2]; 50mM KH2PO4 pH6.5 + 2%TPGS, 15 min, listed as RBC free base form 7) of the same compound?
A: Its Solubility is 800 µg/mL.

Q: And the Solubility ([2]; 50mM KH2PO4 pH6.5 + 2%TPGS, 1 h, listed as RBC free base form 7)?
A: The Solubility was 800 µg/mL.

Q: And the Solubility ([2]; 50mM KH2PO4 pH6.8, 15 min, listed as RBC free base form 7)?
A: Its Solubility is 500 µg/mL (≈ 1.15 mM).

Q: And the Solubility ([2]; 50mM KH2PO4 pH6.8, 1 h, listed as RBC free base form 7)?
A: The Solubility was 1100 µg/mL (≈ 2.53 mM).

Q: What about the “Stability of solid form (in DVS)” value [3] of the same compound?
A: The value was “stable”.

Q: What does the source list for `CN(C)C(=O)c1cc2cnc(Nc3ccc(N4CCNCC4)cn3)nc2n1C1CCCC1` [Form 8, 7-cyclopentyl-N,N-dimethyl-2-((5-(piperazin-1-yl)pyridin-2-yl)amino)-7H-pyrrolo[2,3-d]pyrimidine-6-carboxamide]?
A: Long term stability at 40°C/75%r.h. (4 weeks) [1]: stable; Long term stability at 40°C/75%r.h. (12 weeks) [1]: stable; Solubility ([2]; 0.01 N HCl ∼pH2.2, 15 min, listed as RBC free base form 8): 4000 µg/mL (≈ 9.2 mM); Solubility ([2]; 0.01 N HCl ∼pH2.2, 1 h, listed as RBC free base form 8): 1000 µg/mL (≈ 2.3 mM); Solubility ([2]; 50mM KH2PO4 pH6.5 + 2%TPGS, 15 min, listed as RBC free base form 8): 3900 µg/mL; Solubility ([2]; 50mM KH2PO4 pH6.5 + 2%TPGS, 1 h, listed as RBC free base form 8): 900 µg/mL
